From patent publication US9878007B2, “Syndecan peptides and polypeptides as inhibitors of vascular endothelial growth factor receptor-2 (VEGFR2) and very late antigen-4 (VLA-4)” (Wisconsin Alumni Research Foundation, priority 2015, dated 2018) come the findings set out here.

For assay [1], the system named is HMEC-1 cells. Kind of assay: Transwell migration / invasion assay of HMEC-1 cells. It counts as cell-based. The note with it: 16 hr. As for the experimental part: FIGS. 8A-H. HPSE mediated the Sdc1-coupled VEGFR2 complex in endothelial cells induces angiogenesis. (FIG. 8A) Lysates from HPSE^low, HPSE^high and HMEC-1 cells are probed by immunoblotting for expression of HPSE. (FIG. 8B) HMEC-1 cells were seeded at equal density and grown in serum-free media for 24 hr in the absence or presence of 125 μg/ml of the HPSE inhibitor SST0001. After 24 hr, conditioned media were harvested, and the level of shed Sdc1 in the conditioned medium from each condition was determined by immunoblotting. (FIG. 8C) HMEC-1 cell lysate was incubated overnight with glutathione beads coated with GST or GST-S1ED. Capture of VLA-4 or VEGFR2 was detected by immunoblotting. (FIG. 8D) HMEC-1 cells were plated on IIICS for 3 hr and double stained for VLA-4 and Sdc1, VEGFR2 and Sdc1, or VLA-4 and VEGFR2. (FIG. 8E) HMEC-1 cells were treated with DMSO, VLA-4 blocking antibody P1H4, β1-integrin blocking antibody mAb13, 10 μg/ml MMP9 blocking antibody, 125 μg/ml HPSE inhibitor SST0001, Vandetanib, VEGFR2 blocking antibody, 30 μM S1ED^210-233 or 30 μM S1ED^214-240 and then plated on IIICS. Images were taken from random field with 200× magnification for counting attached and spread cells. (FIG. 8F) HMEC-1 cells were plated on IIICS in the presence of 10 μM of S1ED^210-236, S1ED^210-233, S1ED^215-240, and S1ED^214-240. Lysates were probed on immunoblots with antibodies against pY^1175 VEGFR2 and VEGFR2. (FIG. 8G) Transwell migration assays towards IIICS (for 16 hr) were performed for HMEC-1 cells in the presence of P1H4, SST0001, Anti-MMP9, Vandetanib, S1ED^210-236, S1ED^210-233, and S1ED^214-240. Images were taken from random field with 200× magnification for counting migrated cells. (FIG. 8H) A 96-well plate coated with 50 μl Matrigel containing 100 μg/ml IIICS per well was solidified at 37° C. for 2 hrs. […]
The bottom chambers of Transwell filter chambers (8 μm pores; Corning) were coated with 40 μg/ml of FN. […] Cells from at least five random fields were counted.

Assay [2] concerns HMEC-1 cells. The assay is described as follows: In vitro tube formation assay of HMEC-1 cells on Matrigel. The assay is classed as cell-based. Particulars: 24 hrs, 10 μM peptides. As for the experimental part:
FIGS. 8A-H. HPSE mediated the Sdc1-coupled VEGFR2 complex in endothelial cells induces angiogenesis. (FIG. 8A) Lysates from HPSE^low, HPSE^high and HMEC-1 cells are probed by immunoblotting for expression of HPSE. (FIG. 8B) HMEC-1 cells were seeded at equal density and grown in serum-free media for 24 hr in the absence or presence of 125 μg/ml of the HPSE inhibitor SST0001. After 24 hr, conditioned media were harvested, and the level of shed Sdc1 in the conditioned medium from each condition was determined by immunoblotting. (FIG. 8C) HMEC-1 cell lysate was incubated overnight with glutathione beads coated with GST or GST-S1ED. Capture of VLA-4 or VEGFR2 was detected by immunoblotting. (FIG. 8D) HMEC-1 cells were plated on IIICS for 3 hr and double stained for VLA-4 and Sdc1, VEGFR2 and Sdc1, or VLA-4 and VEGFR2. (FIG. 8E) HMEC-1 cells were treated with DMSO, VLA-4 blocking antibody P1H4, β1-integrin blocking antibody mAb13, 10 μg/ml MMP9 blocking antibody, 125 μg/ml HPSE inhibitor SST0001, Vandetanib, VEGFR2 blocking antibody, 30 μM S1ED^210-233 or 30 μM S1ED^214-240 and then plated on IIICS. Images were taken from random field with 200× magnification for counting attached and spread cells. (FIG. 8F) HMEC-1 cells were plated on IIICS in the presence of 10 μM of S1ED^210-236, S1ED^210-233, S1ED^215-240, and S1ED^214-240. Lysates were probed on immunoblots with antibodies against pY^1175 VEGFR2 and VEGFR2. (FIG. 8G) Transwell migration assays towards IIICS (for 16 hr) were performed for HMEC-1 cells in the presence of P1H4, SST0001, Anti-MMP9, Vandetanib, S1ED^210-236, S1ED^210-233, and S1ED^214-240. Images were taken from random field with 200× magnification for counting migrated cells. (FIG. 8H) A 96-well plate coated with 50 μl Matrigel containing 100 μg/ml IIICS per well was solidified at 37° C. for 2 hrs. HMEC-1 cells (2.5×10^4 cells/well) were seeded into the plate and cultured in media containing VEGF, SST0001, 10 μM of S1ED^210-236, S1ED^210-233, S1ED^215-240, and S1ED^214-240 for 24 hrs. Enclosed capillary networks of tubes were taken from random field with 200× magnification.

Assay [3] concerns CAG myeloma cells. The assay is described as follows: Cell spreading / attachment assay of CAG myeloma cells on FN or VCAM-1. The note with it: 0.3 μM peptide; for induction of HPSE^low cell spreading by S1ED peptides: on VCAM-1. It counts as cell-based, human. The protocol: Nitrocellulose-coated slides were coated for 2 hr at 37° C. with 40 μg/ml FN (kindly provided by Dr. Donna Peters, University of Wisconsin-Madison) or 5 μg/ml recombinant VCAM-1/Fc chimera (R&D Systems) in calcium and magnesium-free PBS (CMF-PBS; 135 mM NaCl, 2.7 mM KCl, 10.2 mM Na2HPO4-7H20 and 1.75 mM KH2PO4, pH7.4). Slides were blocked for 1 hr at 37° C. with RPMI 1640 containing 1% heat-denatured BSA (plating medium). Cells in plating medium were allowed to attach and spread for 2.5 hr at 37° C. Slides were fixed in 4% EM grade paraformaldehyde (Electron Microscopy Sciences) in CMF-PBS and labeled for 30 min in 0.13 μM rhodamine phalloidin (Invitrogen) in CMF-PBS. Coverslips were mounted in non-fluorescing mounting medium (Immumount; Thermo Shandon) and allowed to dry. All images were acquired with a Nikon Microphot FX microscope using a 20× objective (Nikon; Ex 541-551, DM 580, Barrier 590), Photometric CoolSnap ES camera, and version 7.7.3.0 Metamorph© Imaging software (Molecular Devices). All images represent results from triplicate wells and at least three independent experiments.

The test system of assay [4] is CAG myeloma cells. Described as above. It counts as cell-based, human. The note with it: on FN, 2 hr; for HPSE^high cell adhesion / HPSE^high cell spreading: 0, 3, 10 and 30 μM peptide; for HPSE^low cell adhesion: high concentrations (30 μM).

No end group written: not given here.

In the case of “DFTFETSGENTAVVAVEPDRRNQSPVD [S1ED^210-236]”, the “invasion of HMEC-1 cells” value in the assay with HMEC-1 cells [1] is “all block invasion”. For the same substance, the “tube formation by HMEC-1 cells” value in the assay on HMEC-1 cells [2] is recorded as “blocks tube formation”. Also, the “rescue of HPSE^high spreading blocked by MMP9 blocking antibody” value with CAG myeloma cells [3] (on FN) is listed as “rescued spreading in the presence of MMP9 inhibitor”. Also, in the assay with CAG myeloma cells [3] (on FN, 1 μM Vandetanib), the “rescue of HPSE^high spreading blocked by Vandetanib” value is listed as “fails to rescue spreading blocked by Vandetanib”. In the assay with CAG myeloma cells [3], the “induction of HPSE^low cell spreading by S1ED peptides” value is “retains full activity”. In addition, in the assay on CAG myeloma cells [4] (0, 0.3, 3, 10 and 30 μM peptide), the “HPSE^low cell spreading” value was “induces HPSE^low cell spreading equal to that observed with S1ED^210-240”. For the same substance, in the assay on CAG myeloma cells [4], the “HPSE^high cell adhesion” value is “induce cell detachment”, the “HPSE^high cell spreading” value is listed as “block cell spreading when added at increasing concentrations” and the “HPSE^low cell adhesion” value is listed as “block cell adhesion”.
As for “S1ED^210-233: syndecan-1 ectodomain peptide, residues 210-233 (SEQ ID NO: 4) (DFTFETSGENTAVVAVEPDRRNQS)”, the “invasion of HMEC-1 cells” value in the assay with HMEC-1 cells [1] is “all block invasion”. Further, the “tube formation by HMEC-1 cells” value with HMEC-1 cells [2] is given as “blocks tube formation”. Further, the “induction of HPSE^low cell spreading by S1ED peptides” value with CAG myeloma cells [3] is reported as “do not”. In the assay on CAG myeloma cells [4], the “HPSE^high cell adhesion” value is “induce cell detachment”, the “HPSE^high cell spreading” value is “block cell spreading when added at increasing concentrations” and the “HPSE^low cell adhesion” value is “block cell adhesion”.
